Key:
[1] = tested on: Epidermal growth factor receptor (Homo sapiens), P00533 [UNDEFINED MUTATION]; details: at 10 µM
[2] = target: T1, Cyclin-dependent kinase-like 2 (Homo sapiens) (UniProt Q92772); experiment: Selectivity interaction (KINOMEscan (DiscoverX)) EUB0001868a CDKL2; details: at 1 µM
T1 sequence (whole entry): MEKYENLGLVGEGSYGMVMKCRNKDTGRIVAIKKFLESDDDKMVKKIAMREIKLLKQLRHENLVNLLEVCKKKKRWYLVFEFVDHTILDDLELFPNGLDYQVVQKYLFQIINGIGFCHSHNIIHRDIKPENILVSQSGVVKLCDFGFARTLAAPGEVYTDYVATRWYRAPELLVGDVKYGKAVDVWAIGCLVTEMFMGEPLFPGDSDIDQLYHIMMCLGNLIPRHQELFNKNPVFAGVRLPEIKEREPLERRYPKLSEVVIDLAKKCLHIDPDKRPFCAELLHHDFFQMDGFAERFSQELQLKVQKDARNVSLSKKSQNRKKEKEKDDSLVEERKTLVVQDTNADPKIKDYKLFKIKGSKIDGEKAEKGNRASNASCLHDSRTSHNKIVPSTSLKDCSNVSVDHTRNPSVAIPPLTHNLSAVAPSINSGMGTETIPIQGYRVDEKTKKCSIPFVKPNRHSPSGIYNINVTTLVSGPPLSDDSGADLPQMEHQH

[3] = target: Vascular endothelial growth factor receptor 1 (Homo sapiens) (UniProt P17948); experiment: Selectivity interaction (Kinase panel (Invitrogen)) EUB0000639a FLT1; details: at 200 nM
[4] = target: Insulin-like growth factor 1 receptor (Homo sapiens, UniProt P08069); experiment: Selectivity interaction (Kinase panel (enzymatic assay)) EUB0000595a IGF1R
[5] = target: Mitogen-activated protein kinase kinase kinase 9 (Homo sapiens) (UniProt P80192); experiment: Selectivity interaction (KinomeScan (DiscoverX)) EUB0000595a MAP3K9; details: at 10 µM
[6] = target: Serine/threonine-protein kinase SIK3 (Homo sapiens) (UniProt Q9Y2K2); experiment: Selectivity interaction (KinomeScan (DiscoverX)) EUB0000092b SIK3; details: at 10 µM
[7] = target: Mitogen-activated protein kinase kinase kinase 9 (Homo sapiens) (UniProt P80192); experiment: Selectivity interaction (KinomeScan (DiscoverX)) EUB0000045b MAP3K9
[8] = target: T2, Receptor-interacting serine/threonine-protein kinase 1 (Homo sapiens) (UniProt Q13546); experiment: Selectivity interaction (KinomeScan (DiscoverX)) EUB0000045b RIPK1
T2 sequence (whole entry): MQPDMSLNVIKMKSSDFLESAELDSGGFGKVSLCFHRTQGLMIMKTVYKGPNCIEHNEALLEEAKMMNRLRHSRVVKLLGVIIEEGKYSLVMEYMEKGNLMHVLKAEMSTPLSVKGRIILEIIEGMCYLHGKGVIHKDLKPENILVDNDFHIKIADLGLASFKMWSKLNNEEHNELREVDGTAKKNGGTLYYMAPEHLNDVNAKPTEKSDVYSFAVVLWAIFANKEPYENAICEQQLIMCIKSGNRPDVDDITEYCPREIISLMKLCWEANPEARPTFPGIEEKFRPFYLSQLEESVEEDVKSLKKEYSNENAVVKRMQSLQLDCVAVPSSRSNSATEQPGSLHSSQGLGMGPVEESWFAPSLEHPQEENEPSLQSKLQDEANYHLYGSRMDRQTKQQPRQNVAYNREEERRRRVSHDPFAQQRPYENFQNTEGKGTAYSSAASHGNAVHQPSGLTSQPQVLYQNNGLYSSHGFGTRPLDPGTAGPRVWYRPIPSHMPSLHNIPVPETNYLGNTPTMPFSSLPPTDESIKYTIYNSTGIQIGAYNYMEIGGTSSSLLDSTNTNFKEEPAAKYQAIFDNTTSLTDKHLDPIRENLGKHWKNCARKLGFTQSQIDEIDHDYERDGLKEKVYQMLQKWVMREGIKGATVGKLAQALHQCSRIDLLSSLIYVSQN

[9] = target: T3, Mitogen-activated protein kinase kinase kinase 12 (Homo sapiens) (UniProt Q12852); experiment: Selectivity interaction (KinomeScan (DiscoverX)) EUB0000607a MAP3K12; details: at 10 µM
T3 sequence (whole entry): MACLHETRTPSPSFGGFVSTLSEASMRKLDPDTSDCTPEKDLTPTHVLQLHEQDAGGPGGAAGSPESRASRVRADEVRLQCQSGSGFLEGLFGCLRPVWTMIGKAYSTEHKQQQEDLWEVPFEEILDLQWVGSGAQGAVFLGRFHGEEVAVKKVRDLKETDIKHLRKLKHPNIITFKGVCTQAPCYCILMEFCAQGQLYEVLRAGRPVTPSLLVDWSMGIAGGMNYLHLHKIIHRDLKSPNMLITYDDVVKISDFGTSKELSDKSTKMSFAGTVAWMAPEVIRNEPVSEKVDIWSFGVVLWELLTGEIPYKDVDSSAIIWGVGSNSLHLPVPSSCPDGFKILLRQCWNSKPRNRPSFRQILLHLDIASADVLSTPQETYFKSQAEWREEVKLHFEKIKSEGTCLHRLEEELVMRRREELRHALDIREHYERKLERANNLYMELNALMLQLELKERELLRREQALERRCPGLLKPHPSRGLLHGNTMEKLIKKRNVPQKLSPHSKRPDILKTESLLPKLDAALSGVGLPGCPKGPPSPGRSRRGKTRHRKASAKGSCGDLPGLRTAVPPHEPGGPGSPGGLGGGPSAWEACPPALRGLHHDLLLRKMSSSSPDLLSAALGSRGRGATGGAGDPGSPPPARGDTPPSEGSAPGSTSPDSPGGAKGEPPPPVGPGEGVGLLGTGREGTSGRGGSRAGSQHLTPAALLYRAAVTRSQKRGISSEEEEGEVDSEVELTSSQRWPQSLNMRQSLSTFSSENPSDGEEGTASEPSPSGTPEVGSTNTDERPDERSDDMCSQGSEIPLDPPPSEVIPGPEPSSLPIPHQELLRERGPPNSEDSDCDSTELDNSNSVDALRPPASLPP

[10] = target: Mitogen-activated protein kinase kinase kinase kinase 4 (Homo sapiens, UniProt O95819); experiment: Selectivity interaction (SelectScreen profiling (Invitrogen)) EUB0000607a MAP4K4; details: at 2 µM
[11] = target: Wee1-like protein kinase 2 (Homo sapiens) (UniProt P0C1S8); experiment: Selectivity interaction (KinomeScan (DiscoverX)) EUB0000666a WEE2; details: at 10 µM

Mitogen-activated protein kinase kinase kinase 9 (Homo sapiens), sequence (P80192 whole entry, looked up): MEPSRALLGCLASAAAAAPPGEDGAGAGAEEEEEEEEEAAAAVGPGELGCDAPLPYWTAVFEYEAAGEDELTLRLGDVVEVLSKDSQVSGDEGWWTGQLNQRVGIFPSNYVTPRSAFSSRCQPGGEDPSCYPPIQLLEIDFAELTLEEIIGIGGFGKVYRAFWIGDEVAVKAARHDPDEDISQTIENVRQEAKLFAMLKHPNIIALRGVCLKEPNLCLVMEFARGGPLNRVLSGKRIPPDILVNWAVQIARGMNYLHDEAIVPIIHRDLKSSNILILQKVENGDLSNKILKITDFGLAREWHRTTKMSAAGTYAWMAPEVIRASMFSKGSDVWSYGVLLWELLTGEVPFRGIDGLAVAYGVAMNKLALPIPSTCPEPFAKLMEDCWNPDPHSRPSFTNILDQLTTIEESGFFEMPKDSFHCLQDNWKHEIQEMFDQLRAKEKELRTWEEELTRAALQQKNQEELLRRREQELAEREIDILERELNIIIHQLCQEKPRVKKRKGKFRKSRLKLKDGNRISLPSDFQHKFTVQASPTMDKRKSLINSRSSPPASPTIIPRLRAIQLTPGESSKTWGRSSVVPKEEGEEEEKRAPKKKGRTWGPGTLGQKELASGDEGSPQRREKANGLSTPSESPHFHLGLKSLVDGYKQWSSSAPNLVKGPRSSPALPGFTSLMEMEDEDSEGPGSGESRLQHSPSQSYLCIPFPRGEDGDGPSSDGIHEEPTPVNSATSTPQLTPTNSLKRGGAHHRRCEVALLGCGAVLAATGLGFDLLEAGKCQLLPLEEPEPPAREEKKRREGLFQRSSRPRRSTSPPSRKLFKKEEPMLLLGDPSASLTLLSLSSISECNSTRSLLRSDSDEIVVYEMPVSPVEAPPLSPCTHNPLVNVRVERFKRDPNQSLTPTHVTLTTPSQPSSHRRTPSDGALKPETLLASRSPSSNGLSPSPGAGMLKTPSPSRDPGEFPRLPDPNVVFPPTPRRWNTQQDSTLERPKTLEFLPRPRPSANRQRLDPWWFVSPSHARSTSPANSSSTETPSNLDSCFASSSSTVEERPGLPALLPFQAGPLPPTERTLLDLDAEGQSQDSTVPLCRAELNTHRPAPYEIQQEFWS
Mitogen-activated protein kinase kinase kinase kinase 4, sequence (O95819 2-1239 limits assumed): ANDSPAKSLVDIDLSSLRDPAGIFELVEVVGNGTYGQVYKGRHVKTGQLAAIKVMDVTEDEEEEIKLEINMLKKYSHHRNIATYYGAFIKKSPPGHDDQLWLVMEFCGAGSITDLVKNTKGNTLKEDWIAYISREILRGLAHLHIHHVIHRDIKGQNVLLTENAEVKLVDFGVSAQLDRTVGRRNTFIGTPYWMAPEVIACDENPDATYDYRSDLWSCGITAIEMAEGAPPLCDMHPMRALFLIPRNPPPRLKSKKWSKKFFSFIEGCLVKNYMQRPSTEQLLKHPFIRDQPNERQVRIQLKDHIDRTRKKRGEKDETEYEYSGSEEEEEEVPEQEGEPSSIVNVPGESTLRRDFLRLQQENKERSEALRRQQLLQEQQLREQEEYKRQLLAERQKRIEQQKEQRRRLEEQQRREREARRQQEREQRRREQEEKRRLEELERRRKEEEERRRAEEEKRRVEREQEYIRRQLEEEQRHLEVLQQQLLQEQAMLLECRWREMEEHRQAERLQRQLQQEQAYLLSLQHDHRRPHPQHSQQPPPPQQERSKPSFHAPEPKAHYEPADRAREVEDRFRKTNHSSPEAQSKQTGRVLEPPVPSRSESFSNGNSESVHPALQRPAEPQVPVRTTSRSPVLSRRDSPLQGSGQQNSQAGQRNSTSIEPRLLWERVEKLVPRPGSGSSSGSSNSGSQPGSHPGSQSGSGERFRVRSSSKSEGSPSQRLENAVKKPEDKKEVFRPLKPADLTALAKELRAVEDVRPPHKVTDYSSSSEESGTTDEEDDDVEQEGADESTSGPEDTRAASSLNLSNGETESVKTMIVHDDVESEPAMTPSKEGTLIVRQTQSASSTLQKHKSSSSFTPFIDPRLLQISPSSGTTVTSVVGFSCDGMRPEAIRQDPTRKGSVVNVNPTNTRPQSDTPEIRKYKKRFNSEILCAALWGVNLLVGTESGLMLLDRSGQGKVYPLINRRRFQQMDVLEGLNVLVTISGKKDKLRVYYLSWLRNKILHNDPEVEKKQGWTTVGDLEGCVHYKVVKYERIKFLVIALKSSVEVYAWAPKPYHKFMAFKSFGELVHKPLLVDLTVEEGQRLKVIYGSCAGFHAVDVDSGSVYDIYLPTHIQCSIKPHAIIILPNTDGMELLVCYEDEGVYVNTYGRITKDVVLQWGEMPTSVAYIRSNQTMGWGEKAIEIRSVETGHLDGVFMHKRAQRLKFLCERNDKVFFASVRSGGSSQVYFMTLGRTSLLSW
Vascular endothelial growth factor receptor 1 (Homo sapiens), sequence (P17948 whole entry): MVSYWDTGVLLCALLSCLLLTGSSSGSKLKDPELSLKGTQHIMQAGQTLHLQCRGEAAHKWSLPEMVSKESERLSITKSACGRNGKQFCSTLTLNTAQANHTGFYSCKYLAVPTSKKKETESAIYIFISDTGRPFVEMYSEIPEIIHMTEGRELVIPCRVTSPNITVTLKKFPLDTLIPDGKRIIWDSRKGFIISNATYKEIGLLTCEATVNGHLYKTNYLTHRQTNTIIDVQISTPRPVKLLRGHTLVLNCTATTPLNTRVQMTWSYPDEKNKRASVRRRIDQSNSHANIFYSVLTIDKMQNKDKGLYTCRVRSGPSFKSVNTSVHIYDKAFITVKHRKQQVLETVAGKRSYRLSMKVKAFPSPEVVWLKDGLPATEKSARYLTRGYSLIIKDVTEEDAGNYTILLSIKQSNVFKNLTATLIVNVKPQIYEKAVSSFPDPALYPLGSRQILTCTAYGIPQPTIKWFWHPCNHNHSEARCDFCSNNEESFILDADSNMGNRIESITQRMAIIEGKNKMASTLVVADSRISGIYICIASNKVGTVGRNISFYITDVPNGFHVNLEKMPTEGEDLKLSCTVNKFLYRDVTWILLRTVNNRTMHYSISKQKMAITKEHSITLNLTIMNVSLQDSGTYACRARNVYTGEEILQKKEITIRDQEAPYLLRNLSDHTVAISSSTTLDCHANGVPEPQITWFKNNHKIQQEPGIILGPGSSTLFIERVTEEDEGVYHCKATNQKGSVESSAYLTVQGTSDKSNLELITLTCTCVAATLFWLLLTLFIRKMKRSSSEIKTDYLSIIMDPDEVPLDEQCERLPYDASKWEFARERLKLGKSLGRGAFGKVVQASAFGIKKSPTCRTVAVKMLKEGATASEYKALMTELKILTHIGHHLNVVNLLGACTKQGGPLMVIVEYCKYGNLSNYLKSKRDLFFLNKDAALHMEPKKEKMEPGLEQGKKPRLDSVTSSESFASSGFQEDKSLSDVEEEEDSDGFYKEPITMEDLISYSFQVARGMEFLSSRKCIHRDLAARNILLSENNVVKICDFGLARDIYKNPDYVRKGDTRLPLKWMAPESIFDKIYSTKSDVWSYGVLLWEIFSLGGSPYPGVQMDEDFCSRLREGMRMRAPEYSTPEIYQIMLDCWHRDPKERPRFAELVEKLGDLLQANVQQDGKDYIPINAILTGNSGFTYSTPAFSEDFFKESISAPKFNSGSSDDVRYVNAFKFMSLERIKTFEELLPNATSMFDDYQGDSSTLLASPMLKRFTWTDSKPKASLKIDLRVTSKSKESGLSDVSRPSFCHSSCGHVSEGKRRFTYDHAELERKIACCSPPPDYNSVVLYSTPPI
Serine/threonine-protein kinase SIK3 (Homo sapiens), sequence (Q9Y2K2 whole entry, looked up): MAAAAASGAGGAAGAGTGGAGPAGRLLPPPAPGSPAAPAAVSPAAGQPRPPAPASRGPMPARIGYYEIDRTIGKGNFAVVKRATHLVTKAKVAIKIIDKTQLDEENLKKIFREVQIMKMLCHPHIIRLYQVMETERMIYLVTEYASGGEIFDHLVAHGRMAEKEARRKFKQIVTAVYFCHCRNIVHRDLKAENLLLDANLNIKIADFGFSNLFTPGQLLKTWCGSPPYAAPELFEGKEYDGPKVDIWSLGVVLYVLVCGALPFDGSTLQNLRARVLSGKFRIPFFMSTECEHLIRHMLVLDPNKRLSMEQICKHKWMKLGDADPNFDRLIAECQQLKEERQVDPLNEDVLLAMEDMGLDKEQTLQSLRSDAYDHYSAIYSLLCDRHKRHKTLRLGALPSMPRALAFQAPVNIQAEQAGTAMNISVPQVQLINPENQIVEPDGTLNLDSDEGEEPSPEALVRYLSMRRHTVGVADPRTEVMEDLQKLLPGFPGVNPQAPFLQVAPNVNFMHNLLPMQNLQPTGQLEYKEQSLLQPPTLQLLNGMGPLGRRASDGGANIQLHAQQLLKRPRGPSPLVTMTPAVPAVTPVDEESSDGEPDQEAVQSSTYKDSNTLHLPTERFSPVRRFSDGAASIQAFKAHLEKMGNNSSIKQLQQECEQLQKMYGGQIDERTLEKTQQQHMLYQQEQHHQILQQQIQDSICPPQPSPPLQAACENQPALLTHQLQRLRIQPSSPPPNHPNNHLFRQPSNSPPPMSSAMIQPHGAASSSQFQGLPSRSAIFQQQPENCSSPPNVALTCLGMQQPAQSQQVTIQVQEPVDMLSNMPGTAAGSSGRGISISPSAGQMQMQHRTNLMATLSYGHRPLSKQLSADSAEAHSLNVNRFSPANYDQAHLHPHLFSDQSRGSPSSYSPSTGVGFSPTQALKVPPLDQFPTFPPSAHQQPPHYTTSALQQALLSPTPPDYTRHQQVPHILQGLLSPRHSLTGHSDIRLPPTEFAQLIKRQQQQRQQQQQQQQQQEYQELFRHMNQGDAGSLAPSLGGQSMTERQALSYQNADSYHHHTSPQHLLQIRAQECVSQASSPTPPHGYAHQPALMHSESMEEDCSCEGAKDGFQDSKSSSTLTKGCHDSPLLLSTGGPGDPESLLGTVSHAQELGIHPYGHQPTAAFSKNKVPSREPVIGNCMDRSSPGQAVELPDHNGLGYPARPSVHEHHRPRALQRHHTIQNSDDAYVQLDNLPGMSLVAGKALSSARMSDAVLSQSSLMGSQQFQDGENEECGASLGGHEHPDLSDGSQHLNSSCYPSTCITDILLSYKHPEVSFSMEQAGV

Cc1cc([C@@H](C)Nc2ccccc2C(=O)O)c2nc(N3CCOCC3)cc(=O)n2c1 [AZD-6482]
% of control [1]: 100%

Cc1cc(-c2ccnc(Nc3cnn(C)c3)n2)ccc1CNC(=O)N1CC(OC(C)C)C1
% of control [2]: 15%

CC[C@@H]1[C@H](F)C(=O)N[C@@H]1COc1nccc2cc(C(N)=O)c(OC)cc12 [ZIMLOVISERTIB]
% of inhibition [3]: 3.08%

COCC(=O)NC/C=C/c1ccc2ncnc(Nc3ccc(Oc4ccc(C)nc4)c(C)c3)c2c1 [CP-724714]
IC50 [4]: > 10 µM | % of control [5]: 74%

CCC(=O)N1CCN(c2ccc(-n3c(=O)ccc4cnc5ccc(-c6cnc7ccccc7c6)cc5c43)cc2C(F)(F)F)CC1
% of control [6]: 89%

C=CC(=O)Nc1cc(-n2c(=O)ccc3cnc4ccc(-c5ccc(NS(C)(=O)=O)cc5)cc4c32)ccc1C
% of control ([7]; at 1 µM): 100% | % of control ([7]; at 10 µM): 83% | % of control ([8]; at 1 µM): 87% | % of control ([8]; at 10 µM): 100%

CNC(=O)Nc1ccc(-c2nc(N3CC4CCC(C3)O4)c3cnn(C4CCC5(CC4)OCCO5)c3n2)cc1
% of control [9]: 93% | % of inhibition [10]: 10%

O=C(NOC[C@H](O)CO)c1ccc(F)c(F)c1Nc1ccc(I)cc1F
% of control [11]: 77%

— ChEMBL document CHEMBL5465560, “Selectivity Literature for EUbOPEN Chemogenomic Library” (2024)
